# Assay results as given in patent US20150094474A1, “AGRICULTURAL CHEMICALS” (Redx Pharma Ltd., priority 2012, published 2015).
# Columns and labels:
# barley = assay: Herbicidal bioassay, barley (% necrosis); format: in vivo
# Outline: (§1)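 Scoring of % necrosis followed EPPO guideline PP1/135 at specified growth intervals, five replicates per species and treatment. Plants at the 2-4 true leaf stage received Potter-tower sprays of DMSO-diluted compounds across six levels from 0.0001% to 0.05%, with water and DMSO controls.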
# peas = assay: Herbicidal bioassay, peas (% necrosis); format: in vivo
# Outline: as §1
structure (smiles),measurement,setting,value
"COc1cc(OC)nc(NC(=O)NS(=O)(=O)c2cc(CNS(C)(=O)=O)ccc2COC(C)=O)n1 [Compound 61, [2-[(4,6-Dimethoxypyrimidin-2-yl)carbamoylsulfamoyl]-4-(methanesulfonamidomethyl)phenyl]methylacetate]",Sum of % necrosis in barley,"barley; Dose 0.000001, Day 0",C (less than 50% necrosis)
same,Sum of % necrosis in barley,"barley; Dose 0.000001, Day 1",C (less than 50% necrosis)
same,Sum of % necrosis in barley,"barley; Dose 0.000001, Day 3",C (less than 50% necrosis)
same,Sum of % necrosis in barley,"barley; Dose 0.000001, Day 7",C (less than 50% necrosis)
same,Sum of % necrosis in barley,"barley; Dose 0.000001, Day 10",C (less than 50% necrosis)
same,Sum of % necrosis in barley,"barley; Dose 0.000001, Day 14",C (less than 50% necrosis)
same,Sum of % necrosis in barley,"barley; Dose 0.000005, Day 0",C (less than 50% necrosis)
same,Sum of % necrosis in barley,"barley; Dose 0.000005, Day 1",C (less than 50% necrosis)
same,Sum of % necrosis in barley,"barley; Dose 0.000005, Day 3",C (less than 50% necrosis)
same,Sum of % necrosis in barley,"barley; Dose 0.000005, Day 7",C (less than 50% necrosis)
same,Sum of % necrosis in barley,"barley; Dose 0.000005, Day 10",C (less than 50% necrosis)
same,Sum of % necrosis in barley,"barley; Dose 0.000005, Day 14",C (less than 50% necrosis)
same,Sum of % necrosis in barley,"barley; Dose 0.00001, Day 0",C (less than 50% necrosis)
same,Sum of % necrosis in barley,"barley; Dose 0.00001, Day 1",C (less than 50% necrosis)
same,Sum of % necrosis in barley,"barley; Dose 0.00001, Day 3",C (less than 50% necrosis)
same,Sum of % necrosis in barley,"barley; Dose 0.00001, Day 7",C (less than 50% necrosis)
same,Sum of % necrosis in barley,"barley; Dose 0.00001, Day 10",C (less than 50% necrosis)
same,Sum of % necrosis in barley,"barley; Dose 0.00001, Day 14",C (less than 50% necrosis)
same,Sum of % necrosis in barley,"barley; Dose 0.00005, Day 0",C (less than 50% necrosis)
same,Sum of % necrosis in barley,"barley; Dose 0.00005, Day 1",C (less than 50% necrosis)
same,Sum of % necrosis in barley,"barley; Dose 0.00005, Day 3",C (less than 50% necrosis)
same,Sum of % necrosis in barley,"barley; Dose 0.00005, Day 7",C (less than 50% necrosis)
same,Sum of % necrosis in barley,"barley; Dose 0.00005, Day 10",C (less than 50% necrosis)
same,Sum of % necrosis in barley,"barley; Dose 0.00005, Day 14",C (less than 50% necrosis)
same,Sum of % necrosis in barley,"barley; Dose 0.0001, Day 0",C (less than 50% necrosis)
same,Sum of % necrosis in barley,"barley; Dose 0.0001, Day 1",C (less than 50% necrosis)
same,Sum of % necrosis in barley,"barley; Dose 0.0001, Day 3",C (less than 50% necrosis)
same,Sum of % necrosis in barley,"barley; Dose 0.0001, Day 7",C (less than 50% necrosis)
same,Sum of % necrosis in barley,"barley; Dose 0.0001, Day 10",C (less than 50% necrosis)
same,Sum of % necrosis in barley,"barley; Dose 0.0001, Day 14",C (less than 50% necrosis)
same,Sum of % necrosis in barley,"barley; Dose 0.0005, Day 0",C (less than 50% necrosis)
same,Sum of % necrosis in barley,"barley; Dose 0.0005, Day 1",C (less than 50% necrosis)
same,Sum of % necrosis in barley,"barley; Dose 0.0005, Day 3",C (less than 50% necrosis)
same,Sum of % necrosis in barley,"barley; Dose 0.0005, Day 7",C (less than 50% necrosis)
same,Sum of % necrosis in barley,"barley; Dose 0.0005, Day 10",C (less than 50% necrosis)
same,Sum of % necrosis in barley,"barley; Dose 0.0005, Day 14",C (less than 50% necrosis)
same,Sum of % necrosis in Pea,"peas; Dose 0.000001, Day 0",C (less than 50% necrosis)
same,Sum of % necrosis in Pea,"peas; Dose 0.000001, Day 1",C (less than 50% necrosis)
same,Sum of % necrosis in Pea,"peas; Dose 0.000001, Day 3",C (less than 50% necrosis)
same,Sum of % necrosis in Pea,"peas; Dose 0.000001, Day 7",C (less than 50% necrosis)
same,Sum of % necrosis in Pea,"peas; Dose 0.000001, Day 10",C (less than 50% necrosis)
same,Sum of % necrosis in Pea,"peas; Dose 0.000001, Day 14",C (less than 50% necrosis)
same,Sum of % necrosis in Pea,"peas; Dose 0.000005, Day 0",C (less than 50% necrosis)
same,Sum of % necrosis in Pea,"peas; Dose 0.000005, Day 1",C (less than 50% necrosis)
same,Sum of % necrosis in Pea,"peas; Dose 0.000005, Day 3",C (less than 50% necrosis)
same,Sum of % necrosis in Pea,"peas; Dose 0.000005, Day 7",C (less than 50% necrosis)
same,Sum of % necrosis in Pea,"peas; Dose 0.000005, Day 10",C (less than 50% necrosis)
same,Sum of % necrosis in Pea,"peas; Dose 0.000005, Day 14",C (less than 50% necrosis)
same,Sum of % necrosis in Pea,"peas; Dose 0.00001, Day 0",C (less than 50% necrosis)
same,Sum of % necrosis in Pea,"peas; Dose 0.00001, Day 1",C (less than 50% necrosis)
same,Sum of % necrosis in Pea,"peas; Dose 0.00001, Day 3",C (less than 50% necrosis)
same,Sum of % necrosis in Pea,"peas; Dose 0.00001, Day 7",C (less than 50% necrosis)
same,Sum of % necrosis in Pea,"peas; Dose 0.00001, Day 10",C (less than 50% necrosis)
same,Sum of % necrosis in Pea,"peas; Dose 0.00001, Day 14",B (50%-80% necrosis)
same,Sum of % necrosis in Pea,"peas; Dose 0.00005, Day 0",C (less than 50% necrosis)
same,Sum of % necrosis in Pea,"peas; Dose 0.00005, Day 1",C (less than 50% necrosis)
same,Sum of % necrosis in Pea,"peas; Dose 0.00005, Day 3",C (less than 50% necrosis)
same,Sum of % necrosis in Pea,"peas; Dose 0.00005, Day 7",C (less than 50% necrosis)
same,Sum of % necrosis in Pea,"peas; Dose 0.00005, Day 10",B (50%-80% necrosis)
same,Sum of % necrosis in Pea,"peas; Dose 0.00005, Day 14",B (50%-80% necrosis)
same,Sum of % necrosis in Pea,"peas; Dose 0.0001, Day 0",C (less than 50% necrosis)
same,Sum of % necrosis in Pea,"peas; Dose 0.0001, Day 1",C (less than 50% necrosis)
same,Sum of % necrosis in Pea,"peas; Dose 0.0001, Day 3",C (less than 50% necrosis)
same,Sum of % necrosis in Pea,"peas; Dose 0.0001, Day 7",C (less than 50% necrosis)
same,Sum of % necrosis in Pea,"peas; Dose 0.0001, Day 10",C (less than 50% necrosis)
same,Sum of % necrosis in Pea,"peas; Dose 0.0001, Day 14",C (less than 50% necrosis)
same,Sum of % necrosis in Pea,"peas; Dose 0.0005, Day 0",C (less than 50% necrosis)
same,Sum of % necrosis in Pea,"peas; Dose 0.0005, Day 1",C (less than 50% necrosis)
same,Sum of % necrosis in Pea,"peas; Dose 0.0005, Day 3",C (less than 50% necrosis)
same,Sum of % necrosis in Pea,"peas; Dose 0.0005, Day 7",B (50%-80% necrosis)
same,Sum of % necrosis in Pea,"peas; Dose 0.0005, Day 10",B (50%-80% necrosis)
same,Sum of % necrosis in Pea,"peas; Dose 0.0005, Day 14",A (over 80% necrosis)
